According to paper PMC2933066 (Bioorganic & medicinal chemistry letters, 2010):
Converted amounts (≈) assume the structure as drawn.

Tests used:
[1] = tested on: A549 (human lung adenocarcinoma); settings: cited from earlier work
[2] = tested on: KB (human epidermoid carcinoma of the nasopharynx); settings: cited from earlier work
[3] = tested on: tubulin; type: biochemical; settings: read-out: Inhibition of tubulin assembly IC50 (μM) ± SD

**Q.** What does the source list for `COc1cc2c(c(OC)c1O)-c1ccc(SC)c(=O)cc1C(NC(C)=O)CC2` (centres unmarked) [Compound 3, 2-Demethylthiocolchicine]?
**A.** ED50 against A549 [1]: 0.01 µg/mL (≈ 0.0249 µM); ED50 against KB [2]: 0.01 µg/mL (≈ 0.0249 µM)

**Q.** With `CCCN([C@H]1CCc2cc(OC)c(OC)c(OC)c2-c2ccc(SC)c(=O)cc21)S(=O)(=O)c1ccccc1[N+](=O)[O-]` [Compound 13] as the compound, how does the IC50 [3] read?
**A.** > 40 µM

**Q.** For `CN[C@H]1CCc2cc(OC)c(O)c(OC)c2-c2ccc(SC)c(=O)cc21` [Compound 15], which IC50 [3] is on record?
**A.** > 40 µM

**Q.** Which IC50 [3] does the source give for `CN[C@H]1CCc2cc(OC)c(OP(=O)(O)O)c(OC)c2-c2ccc(SC)c(=O)cc21` [Compound 16] here?
**A.** > 40 µM
